Source: US20130252930A1 (BIOMARIN PHARMACEUTICAL INC., priority 2010, published 2013)
Read-outs that look alike come from different tables or passages of the source.

Legend:
[1] = molecular target: T1, Cyp21 enzyme (Human HEK 293-Cyp21 stable transfected cells) (Homo sapiens, UniProt P08686); test: CYP21-HEK293 enzymatic assay (IC50) (Biological Example 11); assay type: cell-based
T1 construct: expressed in transfected cells
T1 sequence (P08686 1-495): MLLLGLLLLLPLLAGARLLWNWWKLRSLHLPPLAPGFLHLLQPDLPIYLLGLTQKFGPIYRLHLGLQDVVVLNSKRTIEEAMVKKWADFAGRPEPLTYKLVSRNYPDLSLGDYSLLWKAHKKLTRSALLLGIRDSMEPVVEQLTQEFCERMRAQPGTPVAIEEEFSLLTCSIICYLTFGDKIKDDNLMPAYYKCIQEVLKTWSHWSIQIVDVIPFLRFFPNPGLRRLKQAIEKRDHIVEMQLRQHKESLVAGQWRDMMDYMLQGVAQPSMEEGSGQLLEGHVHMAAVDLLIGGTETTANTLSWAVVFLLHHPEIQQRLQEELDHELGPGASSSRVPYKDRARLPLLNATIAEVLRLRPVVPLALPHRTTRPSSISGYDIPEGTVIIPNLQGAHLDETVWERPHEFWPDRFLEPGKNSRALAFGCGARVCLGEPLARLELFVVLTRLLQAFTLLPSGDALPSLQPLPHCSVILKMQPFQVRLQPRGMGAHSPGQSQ

[2] = molecular target: T2, CYP17 (human testicular microsome) (Homo sapiens, UniProt P05093); test: CYP17 enzymatic assay (% inhibition at 1 nM) (Biological Example 12); assay type: biochemical; details: compound at 1 nM
T2 construct: using microsomal fraction from human testis (Celsis Cat #S00110) as the enzyme source; tissue Celsis S00110; host or cells: human testis microsomal fraction
T2 sequence (P05093 1-508): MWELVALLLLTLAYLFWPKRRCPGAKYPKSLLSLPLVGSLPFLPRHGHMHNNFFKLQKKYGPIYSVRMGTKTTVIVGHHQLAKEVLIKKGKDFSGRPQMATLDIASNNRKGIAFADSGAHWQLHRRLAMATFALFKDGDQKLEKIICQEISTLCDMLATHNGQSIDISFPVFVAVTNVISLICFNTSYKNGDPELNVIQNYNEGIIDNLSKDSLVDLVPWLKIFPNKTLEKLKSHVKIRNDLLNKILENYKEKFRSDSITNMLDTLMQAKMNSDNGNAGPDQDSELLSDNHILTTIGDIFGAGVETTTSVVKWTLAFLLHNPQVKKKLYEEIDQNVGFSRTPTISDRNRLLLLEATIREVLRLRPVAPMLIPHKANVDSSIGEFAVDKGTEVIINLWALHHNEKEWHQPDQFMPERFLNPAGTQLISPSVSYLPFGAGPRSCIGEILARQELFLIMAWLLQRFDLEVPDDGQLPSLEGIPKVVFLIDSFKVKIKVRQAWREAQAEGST

[3] = HEK 293-Cyp21 cells, read-out: CYP21-HEK293 enzymatic assay IC50 (Biological Example No. 11)
[4] = read-out: CYP17 enzymatic assay % inhibition at 1 nM (Biological Example No. 12)
[5] = HEK 293-Cyp21 cells, read-out: Biological Example No. 11: CYP21-HEK293 enzymatic assay IC50
[6] = read-out: Biological Example No. 12: CYP17 enzymatic assay % inhibition at 1 nM
[7] = HEK 293-Cyp21 stable transfected cells, read-out: CYP21-HEK293 enzymatic assay IC50 (Biological Example No. 11)

IC50 [1, 7] | SMILES | IC50 [1, 5] | inhibition at 0.001 µM [2, 6] | also measured
 | Cc1cccc(C)c1C(=O)O[C@H]1CC[C@@]2(C)C(=CCC3C4=CC=C(c5cccnc5)[C@@]4(C)CCC32)C1 (stereo partly drawn) [Compound 196, (3S,10R,13S)-10,13-dimethyl-17-(pyridin-3-yl)-2,3,4,7,8,9,10,11,12,13-decahydro-1H-cyclopenta[a]phenanthren-3-yl 2,6-dimethylbenzoate] |  |  | IC50 [1, 3]: > 1000 nM; inhibition at 0.001 µM [2, 4]: < 10%
 | C[C@]12CCC3C(CC=C4C=CCC[C@@]43C)C1=CC=C2c1cccnc1 (stereo partly drawn) [Compound 197, 3-((10R,13S)-10,13-dimethyl-2,7,8,9,10,11,12,13-octahydro-1H-cyclopenta[a]phenanthren-17-yl)pyridine] |  |  | IC50 [1, 3]: > 1000 nM; inhibition at 0.001 µM [2, 4]: 10 to 50%
 | Cc1cccc(C)c1C(=O)O[C@@H]1CC[C@@]2(C)C(=CCC3C4=CC=C(c5cccnc5)[C@@]4(C)CCC32)C1 (stereo partly drawn) [Compound 198, (3R,10R,13S)-10,13-dimethyl-17-(pyridin-3-yl)-2,3,4,7,8,9,10,11,12,13-decahydro-1H-cyclopenta[a]phenanthren-3-yl 2,6-dimethylbenzoate] |  |  | IC50 [1, 3]: > 1000 nM; inhibition at 0.001 µM [2, 4]: < 10%
 | C[C@]12CC[C@@H](NS(=O)(=O)C3CC3)CC1=CC[C@@H]1[C@@H]2CC[C@]2(C)C(c3cccnc3)=CC[C@@H]12 [Compound 228, N-((3R,10R,13S)-10,13-dimethyl-17-(pyridin-3-yl)-2,3,4,7,8,9,10,11,12,13,14,15-dodecahydro-1H-cyclopenta[a]phenanthren-3-yl)cyclopropanesulfonamide] |  |  | IC50 [1, 3]: > 1000 nM; inhibition at 0.001 µM [2, 4]: 10 to 50%
 | CC1=C2CCC3C4=CC=C(c5cccnc5)[C@@]4(C)CCC3[C@@]2(C)CCC1=O (stereo partly drawn) [Compound 296, (10R,13S)-4,10,13-trimethyl-17-(pyridin-3-yl)-6,7,8,9,10,11,12,13-octahydro-1H-cyclopenta[a]phenanthren-3(2H)-one] |  |  | IC50 [1, 3]: > 100 nM; inhibition at 0.001 µM [2, 4]: > 50%
 | CC1C(=O)CC[C@@]2(C)C1CC[C@@H]1[C@@H]2CC[C@]2(C)C(c3cccnc3)=CC[C@@H]12 (stereo partly drawn) [Compound 303, (10R,13S)-4,10,13-trimethyl-17-(pyridin-3-yl)-4,5,6,7,8,9,10,11,12,13,14,15-dodecahydro-1H-cyclopenta[a]phenanthren-3(2H)-one] | > 1000 nM | 10 to 50% | 
 | CC1CC2C3=CC=C(c4ccc(F)nc4)[C@@]3(C)CCC2[C@@]2(C)CCC(=O)C=C12 (stereo partly drawn) [Compound 326, (10R,13S)-17-(6-fluoropyridin-3-yl)-6,10,13-trimethyl-6,7,8,9,10,11,12,13-octahydro-1H-cyclopenta[a]phenanthren-3(2H)-one] | > 1000 nM | 10 to 50% | 
 | CC1CC2C3=CC=C(c4cncc(C(F)F)c4)[C@@]3(C)CCC2[C@@]2(C)CCC(=O)C=C12 (stereo partly drawn) [Compound 328, (10R,13S)-17-(5-(difluoromethyl)pyridin-3-yl)-6,10,13-trimethyl-6,7,8,9,10,11,12,13-octahydro-1H-cyclopenta[a]phenanthren-3(2H)-one] | > 1000 nM | < 10% | 
 | C[C@]12CCC(=O)C=C1C(C1CC1)C[C@@H]1[C@@H]2CC[C@]2(C)C(c3cncc(F)c3)=CC[C@@H]12 (stereo partly drawn) [Compound 331, (10R,13S)-6-cyclopropyl-17-(5-fluoropyridin-3-yl)-10,13-dimethyl-6,7,8,9,10,11,12,13,14,15-decahydro-1H-cyclopenta[a]phenanthren-3(2H)-one] | > 1000 nM | 10 to 50% | 
 | CCC1CC2C(CC[C@]3(C)C(c4cccnc4)=CCC23)[C@@]2(C)CCC(=O)C=C12 (stereo partly drawn) [Compound 332, (10R,13S)-6-ethyl-10,13-dimethyl-17-(pyridin-3-yl)-6,7,8,9,10,11,12,13,14,15-decahydro-1H-cyclopenta[a]phenanthren-3(2H)-one] | 10 to 100 nM | 10 to 50% | 
 | CCC1CC2C(CC[C@]3(C)C(c4cncc(F)c4)=CCC23)[C@@]2(C)CCC(=O)C=C12 (stereo partly drawn) [Compound 333, (10R,13S)-6-ethyl-17-(5-fluoropyridin-3-yl)-10,13-dimethyl-6,7,8,9,10,11,12,13,14,15-decahydro-1H-cyclopenta[a]phenanthren-3(2H)-one] | > 1000 nM | < 10% | 
 | CCC1CC2C(CC[C@]3(C)C(c4cncc(C(F)F)c4)=CCC23)[C@@]2(C)CCC(=O)C=C12 (stereo partly drawn) [Compound 334, (10R,13S)-17-(5-(difluoromethyl)pyridin-3-yl)-6-ethyl-10,13-dimethyl-6,7,8,9,10,11,12,13,14,15-decahydro-1H-cyclopenta[a]phenanthren-3(2H)-one] | > 1000 nM | < 10% | 
> 100 nM | CN1CC[C@@]2(C)C(=CC1=O)CCC1C3=CC=C(c4cncc(F)c4)[C@@]3(C)CCC12 (stereo partly drawn) [Compound 392, (5aR,7aS)-8-(5-fluoropyridin-3-yl)-3,5a,7a-trimethyl-3,4,5,5a,5b,6,7,7a,11,12-decahydrocyclopenta[5,6]naphtho[1,2-d]azepin-2(10bH)-one] |  |  | 
10 to 100 nM | CC1CC2C3=CC=C(c4cccnc4)[C@@]3(C)CCC2[C@@]2(C)CCN(C)C(=O)C=C12 (stereo partly drawn) [Compound 393, (5aR,7aS)-3,5a,7a,12-tetramethyl-8-(pyridin-3-yl)-3,4,5,5a,5b,6,7,7a,11,12-decahydrocyclopenta[5,6]naphtho[1,2-d]azepin-2(10bH)-one] |  |  | 
> 100 nM | CC1CC2C3=CC=C(c4cncc(F)c4)[C@@]3(C)CCC2[C@@]2(C)CCN(C)C(=O)C=C12 (stereo partly drawn) [Compound 394, (5aR,7aS)-8-(5-fluoropyridin-3-yl)-3,5a,7a,12-tetramethyl-3,4,5,5a,5b,6,7,7a,11,12-decahydrocyclopenta[5,6]naphtho[1,2-d]azepin-2(10bH)-one] |  |  | 
10 to 100 nM | CN1CC[C@@]2(C)C(=CC1=O)C1CC1[C@H]1C3=CC=C(c4cccnc4)[C@@]3(C)CC[C@@H]12 (stereo partly drawn) [Compound 396, (5aR,7aS)-3,5a,7a-trimethyl-8-(pyridin-3-yl)-3,4,5,5a,5b,6,7,7a,10b,10c,11,11a-dodecahydro-2H-cyclopenta[5,6]cyclopropa[3,4]naphtho[1,2-d]azepin-2-one] |  |  | 
> 1000 nM | C[C@]12CCCN(S(C)(=O)=O)CC1CCC1C2CC[C@]2(C)C(n3cncc3C#N)=CCC12 (stereo partly drawn) [Compound 431, 1-((5aR,7aS)-5a,7a-dimethyl-2-(methylsulfonyl)-1,2,3,4,5,5a,5b,6,7,7a,10,10a,10b,11,12,12a-hexadecahydrocyclopenta[5,6]naphtho[2,1-c]azepin-8-yl)-1H-imidazole-5-carbonitrile] |  |  | 
> 1000 nM | C[C@]12CCN(S(C)(=O)=O)CCC1CCC1C2CC[C@]2(C)C(n3cncc3C#N)=CCC12 (stereo partly drawn) [Compound 432, 1-((5aS,7aS)-5a,7a-dimethyl-3-(methylsulfonyl)-1,2,3,4,5,5a,5b,6,7,7a,10,10a,10b,11,12,12a-hexadecahydrocyclopenta[5,6]naphtho[1,2-d]azepin-8-yl)-1H-imidazole-5-carbonitrile] |  |  | 
> 1000 nM | C[C@]12CCN(S(C)(=O)=O)CCC1CC[C@@H]1[C@@H]2CC[C@]2(C)C(n3ccnc3)=CC[C@@H]12 (stereo partly drawn) [Compound 438, (5aS,7aS)-8-(1H-imidazol-1-yl)-5a,7a-dimethyl-3-(methylsulfonyl)-1,2,3,4,5,5a,5b,6,7,7a,10,10a,10b,11,12,12a-hexadecahydrocyclopenta[5,6]naphtho[1,2-d]azepine] |  |  | 
> 1000 nM | C[C@]12CCC3C(CCC4CCN(S(C)(=O)=O)CC[C@@]43C)C1=CC=C2n1ccnc1 (stereo partly drawn) [Compound 489, (5aS,7aS)-8-(1H-imidazol-1-yl)-5a,7a-dimethyl-3-(methylsulfonyl)-1,2,3,4,5,5a,5b,6,7,7a,10b,11,12,12a-tetradecahydrocyclopenta[5,6]naphtho[1,2-d]azepine] |  |  | 

SMILES | IC50 [1, 7] | IC50 [1, 5] | inhibition at 0.001 µM [2, 6] | also measured
C[C@]12CC[C@H]3[C@@H](CC4(CC4)C4=CC(=O)CC[C@@]43C)C1=CC=C2c1cncc(F)c1 [Compound 354, (10R,13S)-17-(5-fluoropyridin-3-yl)-10,13-dimethyl-1,7,8,9,10,11,12,13-octahydrospiro[cyclopenta[a]phenanthrene-6,1′-cyclopropan]-3(2H)-one] | 10 to 100 nM |  |  | 
